The test concerns benzodiazepine site of GABAA. Nature of the test: Binding assay, benzodiazepine site of GABAA (binding assay 1: rat brain, (3H)-flunitrazepam; binding assay 2: bovine hippocampal membranes, [3H]-RY80). The settings on record: radioligand binding; for % Inhibition at 0.1 μM: 0.1 μM test compound; for % Inhibition at 10 μM: 10 μM test compound. On the procedure:
The ability of a compound disclosed herein to act as ligand to the benzodiazepine site of GABAA can be determined using pharmacological models which are well known in the art using the following assay.
Binding assay 1: Whole brain (except cerebellum) of male Wistar derived rats weighing 175±25 g were used to prepare GABAA central benzodiazepine receptor in Na—K phosphate buffer pH 7.4. A 5 mg aliquot was incubated with 1 nM (^3H)-flunitrazepam for 60 minutes at 25° C. Experiments were performed in the presence or absence of 30 μM of GABA. Non-specific binding was estimated in the presence of 10 μM of diazepam. Membranes were filtered and washed, the filters were then counted to determine (^3H)-flunitrazepam specifically bound. Test compounds were tested in duplicate according to the required concentrations (Damm, H. W., et al. (1978) Res. Comm. Chem. Pathol. Pharmacol. 22: 597-560 incorporated herein in its entirety; Speth, R. C., et al. (1979) Life Sci. 24: 351-357 incorporated herein in its entirety).
Receptor Source: Bovine hippocampal membranes
Radioligand: [3H]-RY80 (40-80 Ci/mmol)
Final ligand concentration—[0.8 nM]
Non-specific Determinant: L-655,708—[0.5 μM]
Binding assay 2 followed procedures based on Li and Szabo (Li M., Szabo A., Rosenberg H. Evaluation of native GABAA receptors containing an α5 subunit. Eur. J. Pharmacol. 413: 63-72 (2001)). Incubation Conditions: Reactions are carried out in 50 mM Tris-Citrate (pH 7.8) containing 200 mM NaCl at 0-4° C. for 60 minutes. The reaction is terminated by rapid vacuum filtration onto glass fiber filters. Radioactivity trapped onto the filters is determined and compared to control values in order to ascertain any interactions of test compound with the benzodiazepine (central) binding site.

As to `CCNC(=O)n1ncc2c3nn(-c4ccccc4F)c(=O)c-3c[nH]c21`, the “% Inhibition at 0.1 μM” value is “B (B indicates % inhibition <80% and >20%)”; the “% Inhibition at 10 μM” value is given as “A (A indicates % inhibition >80%)”.

Consider `CC(C)NC(=O)n1ncc2c3nn(-c4ccccc4)c(=O)c-3c[nH]c21` [Compound 6a, N-isopropyl-3-oxo-2-phenyl-2,3-dihydrodipyrazolo[3,4-b:3′,4′-d]pyridine-6(5H)-carboxamide], for which the “% Inhibition at 0.1 μM” value is recorded as “C (C indicates % inhibition <20%)”; the “% Inhibition at 10 μM” value was “B (B indicates % inhibition <80% and >20%)”. As for `CC(C)NC(=O)n1ncc2c3nn(-c4ccc(C(C)C)cc4)c(=O)c-3c[nH]c21` [Compound 6aa, N-isopropyl-2-(4-isopropylphenyl)-3-oxo-2,3-dihydrodipyrazolo[3,4-b:3′,4′-d]pyridine-6(5H)-carboxamide], the “% Inhibition at 10 μM” value is “B (B indicates % inhibition <80% and >20%)”.

As to `CNC(=O)n1ncc2c3nn(-c4cccc(Cl)c4)c(=O)c-3c[nH]c21` [Compound 6ab, 2-(3-chlorophenyl)-N-methyl-3-oxo-2,3-dihydrodipyrazolo[3,4-b:3′,4′-d]pyridine-6(5H)-carboxamide], the “% Inhibition at 10 μM” value is “A (A indicates % inhibition >80%)”. For `CCCCNC(=O)n1ncc2c3nn(-c4cccc(Cl)c4)c(=O)c-3c[nH]c21` [Compound 6ac, N-butyl-2-(3-chlorophenyl)-3-oxo-2,3-dihydrodipyrazolo[3,4-b:3′,4′-d]pyridine-6(5H)-carboxamide], the “% Inhibition at 10 μM” value is listed as “A (A indicates % inhibition >80%)”. As to `CC(C)NC(=O)n1ncc2c3nn(-c4ccc(C(F)(F)F)cc4)c(=O)c-3c[nH]c21` [Compound 6af, N-isopropyl-3-oxo-2-(4-(trifluoromethyl)phenyl)-2,3-dihydrodipyrazolo[3,4-b:3′,4′-d]pyridine-6(5H)-carboxamide], the “% Inhibition at 10 μM” value is “B (B indicates % inhibition <80% and >20%)”. For the compound `CNC(=O)n1ncc2c3nn(-c4ccc(C(F)(F)F)cc4)c(=O)c-3c[nH]c21` [Compound 6ag, N-methyl-3-oxo-2-(4-(trifluoromethyl)phenyl)-2,3-dihydrodipyrazolo[3,4-b:3′,4′-d]pyridine-6(5H)-carboxamide], the “% Inhibition at 10 μM” value was “B (B indicates % inhibition <80% and >20%)”. Same read-out and setting: the entry for `CCCCNC(=O)n1ncc2c3nn(-c4ccc(C(F)(F)F)cc4)c(=O)c-3c[nH]c21` [Compound 6ah, N-butyl-3-oxo-2-(4-(trifluoromethyl)phenyl)-2,3-dihydrodipyrazolo[3,4-b:3′,4′-d]pyridine-6(5H)-carboxamide] is “B (B indicates % inhibition <80% and >20%)”. For the compound `CCCCNC(=O)n1ncc2c3nn(-c4cccc(C(F)(F)F)c4)c(=O)c-3c[nH]c21` [Compound 6aj, N-butyl-3-oxo-2-(3-(trifluoromethyl)phenyl)-2,3-dihydrodipyrazolo[3,4-b:3′,4′-d]pyridine-6(5H)-carboxamide], the “% Inhibition at 0.1 μM” value is recorded as “C (C indicates % inhibition <20%)”; the “% Inhibition at 10 μM” value was “B (B indicates % inhibition <80% and >20%)”. As for `CCCCNC(=O)n1ncc2c3nn(-c4ccc(Cl)cc4F)c(=O)c-3c[nH]c21` [Compound 6ak, N-butyl-2-(4-chloro-2-fluorophenyl)-3-oxo-2,3-dihydrodipyrazolo[3,4-b:3′,4′-d]pyridine-6(5H)-carboxamide], the “% Inhibition at 0.1 μM” value was “C (C indicates % inhibition <20%)” and the “% Inhibition at 10 μM” value is “A (A indicates % inhibition >80%)”. As to `CCCCNC(=O)n1ncc2c3nn(-c4ccccc4F)c(=O)c-3c[nH]c21` [Compound 6al, N-butyl-2-(2-fluorophenyl)-3-oxo-2,3-dihydrodipyrazolo[3,4-b:3′,4′-d]pyridine-6(5H)-carboxamide], the “% Inhibition at 0.1 μM” value is listed as “C (C indicates % inhibition <20%)” and the “% Inhibition at 10 μM” value is “A (A indicates % inhibition >80%)”. Turning to `CCCCNC(=O)n1ncc2c3nn(-c4ccc(F)cc4F)c(=O)c-3c[nH]c21` [Compound 6an, N-butyl-2-(2,4-difluorophenyl)-3-oxo-2,3-dihydrodipyrazolo[3,4-b:3′,4′-d]pyridine-6(5H)-carboxamide], the “% Inhibition at 0.1 μM” value was “B (B indicates % inhibition <80% and >20%)”; the “% Inhibition at 10 μM” value is “A (A indicates % inhibition >80%)”. For `CCNC(=O)n1ncc2c3nn(-c4ccc(F)cc4F)c(=O)c-3c[nH]c21` [Compound 6ao, 2-(2,4-difluorophenyl)-N-ethyl-3-oxo-2,3-dihydrodipyrazolo[3,4-b:3′,4′-d]pyridine-6(5H)-carboxamide], the “% Inhibition at 0.1 μM” value is “B (B indicates % inhibition <80% and >20%)”; the “% Inhibition at 10 μM” value was “A (A indicates % inhibition >80%)”. Regarding `CC(C)CCNC(=O)n1ncc2c3nn(-c4ccc(F)cc4F)c(=O)c-3c[nH]c21` [Compound 6ap, 2-(2,4-difluorophenyl)-N-isopentyl-3-oxo-2,3-dihydrodipyrazolo[3,4-b:3′,4′-d]pyridine-6(5H)-carboxamide], the “% Inhibition at 0.1 μM” value is recorded as “C (C indicates % inhibition <20%)” and the “% Inhibition at 10 μM” value is “A (A indicates % inhibition >80%)”. For the compound `CC(C)CNC(=O)n1ncc2c3nn(-c4ccc(F)cc4F)c(=O)c-3c[nH]c21` [Compound 6aq, 2-(2,4-difluorophenyl)-N-isobutyl-3-oxo-2,3-dihydrodipyrazolo[3,4-b:3′,4′-d]pyridine-6(5H)-carboxamide], the “% Inhibition at 0.1 μM” value is “C (C indicates % inhibition <20%)”; the “% Inhibition at 10 μM” value was “B (B indicates % inhibition <80% and >20%)”.

With `CCNC(=S)n1ncc2c3nn(-c4ccc(Br)cc4)c(=O)c-3c[nH]c21` [Compound 6at, 2-(4-bromophenyl)-N-ethyl-3-oxo-2,3-dihydrodipyrazolo[3,4-b:3′,4′-d]pyridine-6(5H)-carbothioamide], the “% Inhibition at 0.1 μM” value is “A (A indicates % inhibition >80%)” and the “% Inhibition at 10 μM” value is reported as “A (A indicates % inhibition >80%)”. On to `CCNC(=S)n1ncc2c3nn(-c4ccc(C(C)C)cc4)c(=O)c-3c[nH]c21` [Compound 6au, N-ethyl-2-(4-isopropylphenyl)-3-oxo-2,3-dihydrodipyrazolo[3,4-b:3′,4′-d]pyridine-6(5H)-carbothioamide], for which the “% Inhibition at 0.1 μM” value was “B (B indicates % inhibition <80% and >20%)”; the “% Inhibition at 10 μM” value was “A (A indicates % inhibition >80%)”.

`CC(C)NC(=O)n1ncc2c3nn(-c4ccc(Cl)cn4)c(=O)c-3c[nH]c21` [Compound 6aw, 2-(5-chloropyridin-2-yl)-N-isopropyl-3-oxo-2,3-dihydrodipyrazolo[3,4-b:3′,4′-d]pyridine-6(5H)-carboxamide]: the “% Inhibition at 10 μM” value is “B (B indicates % inhibition <80% and >20%)”. Consider `CNC(=O)n1ncc2c3nn(-c4ccc(Cl)cn4)c(=O)c-3c[nH]c21` [Compound 6ax, 2-(5-chloropyridin-2-yl)-N-methyl-3-oxo-2,3-dihydrodipyrazolo[3,4-b:3′,4′-d]pyridine-6(5H)-carboxamide], for which the “% Inhibition at 10 μM” value was “A (A indicates % inhibition >80%)”. In the case of `CNC(=O)n1ncc2c3nn(-c4ccc(Br)cc4)c(=O)c-3c[nH]c21` [Compound 6az, 2-(4-bromophenyl)-N-methyl-3-oxo-2,3-dihydrodipyrazolo[3,4-b:3′,4′-d]pyridine-6(5H)-carboxamide], the “% Inhibition at 10 μM” value is recorded as “A (A indicates % inhibition >80%)”.

Take `CC(C)CNC(=O)n1ncc2c3nn(-c4ccccc4)c(=O)c-3c[nH]c21` [Compound 6e, N-isobutyl-3-oxo-2-phenyl-2,3-dihydrodipyrazolo[3,4-b:3′,4′-d]pyridine-6(5H)-carboxamide]: the “% Inhibition at 0.1 μM” value is “C (C indicates % inhibition <20%)” and the “% Inhibition at 10 μM” value is on record as “A (A indicates % inhibition >80%)”.

Consider `CC(C)CCNC(=O)n1ncc2c3nn(-c4ccccc4)c(=O)c-3c[nH]c21` [Compound 6g, N-isopentyl-3-oxo-2-phenyl-2,3-dihydrodipyrazolo[3,4-b:3′,4′-d]pyridine-6(5H)-carboxamide], for which the “% Inhibition at 0.1 μM” value was “B (B indicates % inhibition <80% and >20%)”; the “% Inhibition at 10 μM” value is on record as “A (A indicates % inhibition >80%)”. Take `O=C(N1CCCC1)n1ncc2c3nn(-c4ccccc4)c(=O)c-3c[nH]c21` [Compound 6k, 2-phenyl-6-(pyrrolidine-1-carbonyl)-5,6-dihydrodipyrazolo[3,4-b:3′,4′-d]pyridin-3(2H)-one]: the “% Inhibition at 0.1 μM” value is listed as “C (C indicates % inhibition <20%)” and the “% Inhibition at 10 μM” value was “C (C indicates % inhibition <20%)”. For the compound `CC(C)NC(=O)n1ncc2c3nn(-c4ccc(Cl)cc4)c(=O)c-3c[nH]c21` [Compound 6p, 2-(4-chlorophenyl)-N-isopropyl-3-oxo-2,3-dihydrodipyrazolo[3,4-b:3′,4′-d]pyridine-6(5H)-carboxamide], the “% Inhibition at 0.1 μM” value is on record as “C (C indicates % inhibition <20%)” and the “% Inhibition at 10 μM” value is given as “C (C indicates % inhibition <20%)”.

The values are drawn from US9012470B2 (Dart NeuroScience (Cayman) Ltd., priority 2010, dated 2015).
